Earlier results as cited in US9603795B2, “Composite for preparing a transdermal delivery device and method for synthesizing the composite thereof” (City University of Hong Kong, priority 2014, dated 2017).

Conditions: oral administration

- amount absorbed in the upper intestinal tract: 1-2%
SMILES: OC[C@H]1O[C@@H]2O[C@H]3[C@H](O)[C@@H](O)[C@@H](O[C@H]4[C@H](O)[C@@H](O)[C@@H](O[C@H]5[C@H](O)[C@@H](O)[C@@H](O[C@H]6[C@H](O)[C@@H](O)[C@@H](O[C@H]7[C@H](O)[C@@H](O)[C@@H](O[C@H]8[C@H](O)[C@@H](O)[C@@H](O[C@H]1[C@H](O)[C@H]2O)O[C@@H]8CO)O[C@@H]7CO)O[C@@H]6CO)O[C@@H]5CO)O[C@@H]4CO)O[C@@H]3CO [β-CD, β-cyclodextrin]
